We go through eleven compounds from paper PMC10257520 (Journal of medicinal chemistry, 2022).

Broadly, the GI50 is the concentration giving 50% growth inhibition. A word on the IC50: it is the concentration that gives 50% inhibition.

One data set deals with SH-SY5Y cells. Put plainly: MTT cell viability assay, SH-SY5Y neuroblastoma cells. Format: cell-based, human. Particulars: 0.5×, 1×, 2× IC50 of the controls on H522; HY-1 at 2.32 μM.
The test system of a further data set is PC-12 cells. Put plainly: MTT cytotoxicity on undifferentiated and differentiated PC-12 cells. Particulars: MTT after 24 h of treatment. The format is cell-based.
The test system of data set [1] is PC-3. The following applies: read-out: GI50, PC-3; five-dose assay; ref public data base of NCI (NSC 759852); cited from earlier work.
The next data set concerns DU-145 cells. Particulars: one-dose; ref public data base of NCI (NSC 759852); cited from earlier work.
Another data set has as its system SF-539 cell line. The following applies: read-out: GI50, SF-539; five-dose assay; ref public data base of NCI (NSC 759852); cited from earlier work.
Another data set has as its system RPMI-8226. The following applies: read-out: GI50, RPMI-8226; five-dose assay; ref public data base of NCI (NSC 759852); cited from earlier work.
Another data set concerns NCI-H522 cells. Put plainly: Time-lapse microscopy of cell death. Format: cell-based, human. The following applies: for Time from initiation of ferroptosis until most/all cells were dead: CETZOLE-1 20 μM (most of the cells), HY-1 5 μM (all cells); for Start of ferroptosis after treatment: CETZOLE-1 20 μM, HY-1 5 μM.
The subject of a further data set is NCI-H23 cell line. Particulars: one-dose; ref public data base of NCI (NSC 759852); cited from earlier work.
Data set [2] concerns LOXIMVI. Particulars: read-out: GI50, LOXIMVI; five-dose assay; ref public data base of NCI (NSC 759852); cited from earlier work.
For data set [3], the system named is IGROV-1. The following applies: read-out: GI50, IGROV-1; five-dose assay; ref public data base of NCI (NSC 759852); cited from earlier work.
Data set [4] relates to DU-145. Particulars: read-out: GI50, DU-145; five-dose assay; ref public data base of NCI (NSC 759852); cited from earlier work.
Another data set deals with NCI-H23. The following applies: read-out: GI50, NCI-H23; five-dose assay; ref public data base of NCI (NSC 759852); cited from earlier work.
The subject of a further data set is HS578. The following applies: read-out: GI50, HS578; five-dose assay; ref public data base of NCI (NSC 759852); cited from earlier work.
Data set [5] has as its system NCI-60 human tumor cell lines. Put plainly: cells.
The test system of data set [6] is LOXIMVI. In words: cells. Particulars: Homo sapiens, LOX IMVI, read-out: GI50, LOXIMVI.
Data set [7] relates to PC-3. Put plainly: cells. The following applies: Homo sapiens, PC-3, read-out: GI50, PC-3.
Data set [8] relates to DU-145. Put plainly: cells. The following applies: Homo sapiens, DU-145, read-out: GI50, DU-145.
For data set [9], the system named is lipid peroxides in NCI-H522 cells. In words: C11-BODIPY lipid peroxidation assay. Format: cell-based, human. Particulars: NCI-H522, 10 μM, 6 h.
In data set [10] the test system is IGROV-1. In words: cells. The following applies: Homo sapiens, IGROV-1, read-out: GI50, IGROV-1.
The test system of data set [11] is HDAC 1, 2, 3, 4, 6, and 8. Particulars: recombinant HDAC proteins.
The subject of the next data set is Class I HDACs. Particulars: read-out: IC50 for Class I HDACs; recombinant HDAC proteins.
The test system of the next data set is RPE cells. In words: cells. The following applies: Homo sapiens, read-out: IC50 on RPE cells.

Like-named read-outs stand apart in the source and are kept apart here. A value given as a limit tells only on which side of the number the result lay.

For `C#Cc1nc(C(=O)NCCCCCCC(=O)OC)cs1` [FC-1, Methyl 7-(2-Ethynylthiazole-4-carboxamido)heptanoate], the “Effect on neuronal cells (SH-SY5Y viability, neurotoxicity)” value (“Effect on neuronal cells” for short) with SH-SY5Y cells was “significant neurotoxicity”. For the same compound, the “Effect on PC-12 cells (differentiated and undifferentiated)” value in the data set on PC-12 cells is on record as “resistant”.
For `O=C(CCCCCCC(=O)Nc1ccccc1)NO` [SAHA], the 50% growth inhibitory concentration (GI50) is 1.58 µM in the data set with PC-3 [1]; 2 µM in the data set on SF-539 cell line; 1.5 µM in the data set on RPMI-8226; 1.25 µM in the data set with LOXIMVI [2]; 2 µM in the data set on IGROV-1 [3]; 1.25 µM in the data set with DU-145 [4]. Moreover, the GI50 in the data set on NCI-H23 and in the data set with HS578 was 2 µM each time. The “Growth %, DU-145” value with DU-145 cells is listed as 3.5%. In addition, the “Time after treatment at which cells were still alive” value in the data set on NCI-H522 cells (SAHA 5 μM) was ≥ 60 h. Moreover, the “Growth %, NCI-H23” value with NCI-H23 cell line was 3.30%.
For the compound `O=C(CCCCCCNC(=O)c1csc(Br)n1)NO` [HC-1, 2-Bromo-N-(7-(hydroxyamino)-7-oxoheptyl)thiazole-4-carboxamide], in data set [5] (read-out: Average GI50), the GI50 amounted to 1.51 µM. The “Effect on neuronal cells” value with SH-SY5Y cells was “very mild toxicity”.
On to `C#Cc1nc(C(=O)NCCCCCCC(=O)NO)cs1` [HY-1, 2-Ethynyl-N-(7-(hydroxyamino)-7-oxoheptyl)thiazole-4-carboxamide], for which the 50% growth inhibitory concentration (GI50) in [5] (read-out: Average GI50) stood at 0.85 µM; in data set [5] (read-out: GI50 values as low as (best cell line)), 0.02 µM; in the data set with LOXIMVI [6], 0.02 µM; in the data set with PC-3 [7], 2 µM; in the data set with DU-145 [8], 0.36 µM; in the data set on IGROV-1 [10], 0.57 µM. Besides, in the data set on SH-SY5Y cells, the “Effect on neuronal cells” value is given as “no neurotoxic effects”. For the same compound, in the data set with PC-12 cells, the “Effect on PC-12 cells (differentiated and undifferentiated)” value was “behaved like the HDAC control HC-1”. Besides, in the data set with NCI-H522 cells, the “Time from initiation of ferroptosis until most/all cells were dead” value was ≤ 2 h. In addition, the “Start of ferroptosis after treatment” value with NCI-H522 cells came to 8 h. For the same compound, the “Lipid peroxide levels (C11-BODIPY 581/591)” value in data set [9] is reported as “increased levels of lipid peroxides”.
Regarding `O=C(/C=C/C=C/c1csc(Br)n1)NO` [HC-4, (2E,4E)-5-(2-Bromothiazol-4-yl)-N-hydroxypenta-2,4-dienamide], in data set [11], the HDAC inhibitory activity entry is listed as “poor HDAC inhibitory activity”.
Take `C#Cc1nc(/C=C\CCCCCC(=O)NO)cs1` [HY-2, (Z)-8-(2-Ethynylthiazol-4-yl)-N-hydroxyoct-7-enamide]: the GI50 in data set [5] (read-out: Average GI50) worked out at 2.18 µM.
For `C#Cc1nc(/C=C/C(=O)NO)cs1` [HY-5, (E)-3-(2-Ethynylthiazol-4-yl)-N-hydroxyacrylamide], the 50% growth inhibitory concentration (GI50) in data set [5] (read-out: Average GI50) is 2.47 µM. Besides, the IC50 in the data set with Class I HDACs was 0.89 to 1.1 µM.
In the case of `COC(=O)CCCCCCNC(=O)c1csc(Br)n1` [NC-1, Methyl 7-(2-Bromothiazole-4-carboxamido)heptanoate], in the data set on SH-SY5Y cells, the “Effect on neuronal cells” value was “no effect”.
Regarding `C#Cc1nc(C2=C(C)[C@@H](O)CC2)cs1` [CETZOLE-1], in the data set with NCI-H522 cells, the “Time from initiation of ferroptosis until most/all cells were dead” value is recorded as ≤ 8 h and the “Start of ferroptosis after treatment” value is recorded as “approximately 12 h”. The IC50 with RPE cells was > 30 µM.
On to `C#Cc1nc(/C=C/C=C/C(=O)NO)cs1` [HY-4, (2E,4E)-5-(2-Ethynylthiazol-4-yl)-N-hydroxypenta-2,4-dienamide], for which the “Effect on neuronal cells” value with SH-SY5Y cells is recorded as “not showing attenuated neurotoxicity”. The HDAC inhibitory activity result in [11] was “poor HDAC inhibitory activity”.
Regarding `C#Cc1nc(/C=C/CCCCCC(=O)NO)cs1` [HY-3, (E)-8-(2-Ethynylthiazol-4-yl)-N-hydroxyoct-7-enamide], in [5] (read-out: Average GI50), the GI50 came out at 3.39 µM.
